From US7300770B2, “Detection of microbe contamination on elastomeric articles” (Kimberly-Clark Worldwide, Inc., priority 2004, dated 2007)
Values joined by “and” are separate entries in the source; they are usually repeats but may differ in a detail not shown here. Equal values may be shown once.

What was measured:
S. aureus [1] = experiment: Dye coatings from different solvents on towels exposed to S. aureus
Description: The behavior of Reichardt's dye coatings made using various different solvents was evaluated. Solutions of Reichardt's dye in acetonitrile, isopropanol, and xylenes were prepared and the solutions were used to coat SCOTT® kitchen rolls towels and allowed to air-dry. […] Though the color of the dye was less intense than that seen with acetonitrile, the color change due to microbial contamination was still readily observed.

E. coli [2] = experiment: Reichardt's dye and TMB coated towel exposed to E. coli suspension; details: towel coated with Reichardt's dye and TMB
L. acidophilus = experiment: Titration of microorganisms with Reichardt's dye on cellulosic towel; details: Lactobacillus, Gram(+), 10^7 CFU/mL, 100 microliters; 160 mg/10 mL acetonitrile
[3] = system: aged, pooled female urine; experiment: Bacterial quantification of aged pooled female urine by dye titration; details: 100 microliters urine
From the text: Table 2 presents the volume of each dye solution required for the dye color to remain steady.

P. aeruginosa [4] = experiment: Titration of microorganisms with Reichardt's dye on cellulosic towel; details: Gram(-), 10^7 CFU/mL, 100 microliters
aged chicken juice = experiment: Comparative dyes dropped onto aged chicken juice on paper towel; details: aged chicken juice on SCOTT paper towel
Rhinovirus [5] = experiment: Virus detection on Reichardt's dye-coated stickers; details: virus diluted serially in saline; 50 microliters, 3 minutes
S. aureus [6] = experiment: Titration of serially diluted S. aureus suspensions on paper towel with dye
From the text: 100 microliters of serially diluted S. aureus bacterial suspensions were placed onto a SCOTT® paper towel. Drops (10 microliters) of the Reichardt's dye in acetonitrile solution (40 milligrams/10 milliliters) were then pipetted onto each spot where the bacteria was placed. The dye solution changed color in less than 1 second. […] This was repeated on each spot corresponding to where different concentrations of bacteria were placed.

Rhinovirus [7] = system: Rhinovirus
S. aureus [8] = experiment: Visual quantification of S. aureus on dye-treated paper, with blind study
Description: The color differences at lower concentrations were less distinct, particularly for the brush-coated sheet. A blind study was then conducted. […] Concentrations of these three drops were unknown to two of the experiment participants. After approximately 2 minutes, the drops were removed and blotted. Using the control regions, the concentrations of each sample were each visually estimated by these two persons. Both persons correctly estimated the concentration of the first sample to be 10^6 CFU/mL. […] The persons, however, incorrectly estimated the third sample to be 10^3 CFU/mL. […] The present inventors believe, however, that the concentration of the chromogen and uniformity of the coating may be readily selected to achieve accurate results at such low concentrations.

[9] = system: Herpes Simplex Virus 1 (HSV-1); experiment: Virus detection on Reichardt's dye-coated stickers; details: undiluted virus, 50 microliters, 3 minutes
S. aureus [10] = experiment: Titration of microorganisms with Reichardt's dye on cellulosic towel; set-up: species or system Staphylococcus aureus; details: Gram(+), 10^7 CFU/mL, 100 microliters
C. albicans = experiment: as above; details: yeast, 10^7 CFU/mL, 100 microliters
Influenza A = experiment: Virus detection on Reichardt's dye-coated stickers; details: undiluted virus, 50 microliters, 3 minutes
E. coli [11] = experiment: Delta E of dye-coated paper and label substrates versus bacteria concentration; details: for Delta E of unknown sample / log CFU/ml (estimated): E. coli
From the text: (§1) More specifically, indicator strips coated with Reichardt's dye were exposed with decreasing amounts of the bacteria aliquots. A hand-held spectrophotometer was used to after application of each aliquot to determine “Delta E” value (calculated using L*, A*, and B* values) for each CFU/mL concentration. The results are set forth below in Table 4 (for paper) and Table 5 (for label). From the above, standard detection curves were generated as shown in FIGS. 5-7 for S. aureus, P. aeruginosa, and E. coli, respectively. As shown, each type of bacteria changed the color of the dye-treated substrate in a slightly different way, creating a unique standard curve. Thereafter, drops of unknown bacteria concentrations were placed on the stickers and a spectrophotometer was used to measure the “Delta E” of the resulting color. The numerical values obtained for each unknown sample set forth below in Tables 6-7. […] Although a few of the results were not completely accurate, the present inventors believe that improving the uniformity of the coating would further enhance detection accuracy.

P. aeruginosa [12] = experiment: as above
From the text: as §1

S. aureus [13] = experiment: as above
From the text: as §1

measles = experiment: Virus detection on Reichardt's dye-coated stickers; details: undiluted virus, 50 microliters, 3 minutes
vaccinia = details: undiluted virus, 50 microliters, 3 minutes
[14] = label substrate, log CFU/ml (actual) 7
[15] = paper substrate, log CFU/ml (actual) 3
[16] = paper substrate, P. aeruginosa, log CFU/ml (actual) 3
[17] = paper substrate, S. aureus, log CFU/ml (actual) 5

[O-]c1c(-c2ccccc2)cc(-[n+]2c(-c3ccccc3)cc(-c3ccccc3)cc2-c2ccccc2)cc1-c1ccccc1 [Reichardt's dye, 4-(2,4,6-triphenylpyridinium-1-yl)-2,6-diphenylphenolate]
Color change of coating where bacterial suspension was placed (S. aureus [1]; acetonitrile solution-based coating): rapid color change | Color change of coating where bacterial suspension was placed (S. aureus [1]; isopropanol and xylenes coatings): No visible color change | Time to change color to a white spot (E. coli [2]): less than 10 seconds | Amount of Dye Required for Persistent Color (L. acidophilus): 110 µL | Volume of dye solution required for the dye color to remain steady ([3]; 4 mg/ml dye solution in acetonitrile): 120 µL | Volume of dye solution required for the dye color to remain steady ([3]; 16 mg/ml dye solution in acetonitrile): 30 µL | Amount of Dye Required for Persistent Color (P. aeruginosa [4]): 80 µL | Color change on dropping dye onto aged chicken juice (aged chicken juice): immediately changed color | Ten-fold dilution down to which stickers changed color (Rhinovirus [5]): 10^−6 | Time for dye solution to change color (S. aureus [6]; 10 microliter drops, 40 mg/10 mL acetonitrile, on S. aureus spots): less than 1 second | Correlation of titration with level of bacterial contamination (S. aureus [6]; drops added until color remained steady): good correlation | Dye added until the color persisted (Rhinovirus [7]; 100 microliters undiluted virus, 80 mg/10 mL acetonitrile with or without TWEEN 80): approximately 9 drops | Discharge of dye color on virus spot (Rhinovirus [7]; surfactant- and non-surfactant-containing solutions): rapidly discharged | S. aureus concentration giving obvious color change (S. aureus [8]; Neenah Bond paper, 80 mg/10 mL acetonitrile, about 2 minutes): ≥ 10^5 CFU/mL | Visually estimated concentration in blind study (S. aureus [8]; first sample, actual 10^6 CFU/mL, dip-coated sheet): 10^6 CFU/mL | Visually estimated concentration in blind study (S. aureus [8]; second sample, actual 10^5 CFU/mL, brush-coated sheet): 10^5 CFU/mL | Visually estimated concentration in blind study (S. aureus [8]; third sample, actual 10^4 CFU/mL, dip-coated sheet): 10^3 CFU/mL | De-colorization of sticker [9]: stronger de-colorization of the sticker than that observed for Rhinovirus and Polio virus | Amount of Dye Required for Persistent Color (S. aureus [10]): 90 µL | Amount of Dye Required for Persistent Color (C. albicans): 70 µL | De-colorization of sticker (Influenza A): less than that observed for the other viruses | Delta E of unknown sample (E. coli [11]; [14]): 7.1157 | log CFU/ml (estimated) (E. coli [11]; [14]): 7 | Delta E (E. coli) (E. coli [11]; label substrate, log CFU/ml 3): 5.13 | Delta E (E. coli) (E. coli [11]; label substrate, log CFU/ml 4): 5.201 | Delta E (E. coli) (E. coli [11]; label substrate, log CFU/ml 5): 4.644 | Delta E (E. coli) (E. coli [11]; label substrate, log CFU/ml 6): 4.867 | Delta E (E. coli) (E. coli [11]; label substrate, log CFU/ml 7): 7.779 | Delta E of unknown sample (E. coli [11]; [15]): 1.3605 | log CFU/ml (estimated) (E. coli [11]; [15]): 5 | Delta E (E. coli) (E. coli [11]; paper substrate, log CFU/ml 3): 3.8228 | Delta E (E. coli) (E. coli [11]; paper substrate, log CFU/ml 4): 3.0123 | Delta E (E. coli) (E. coli [11]; paper substrate, log CFU/ml 5): 2.3320 | Delta E (E. coli) (E. coli [11]; paper substrate, log CFU/ml 6): 3.2574 | Delta E (E. coli) (E. coli [11]; paper substrate, log CFU/ml 7): 4.3483 | Delta E (E. coli) (E. coli [11]; paper substrate, log CFU/ml 8): 9.3642 | Delta E of unknown sample (P. aeruginosa [12]; label substrate, P. aeruginosa, log CFU/ml (actual) 6): 4.4954 and 4.1002 | Delta E (P. aeruginosa) (P. aeruginosa [12]; label substrate, log CFU/ml 3): 3.8787 | Delta E (P. aeruginosa) (P. aeruginosa [12]; label substrate, log CFU/ml 4): 4.9473 | Delta E (P. aeruginosa) (P. aeruginosa [12]; label substrate, log CFU/ml 5): 4.6519 | Delta E (P. aeruginosa) (P. aeruginosa [12]; label substrate, log CFU/ml 6): 4.2419 | Delta E (P. aeruginosa) (P. aeruginosa [12]; label substrate, log CFU/ml 7): 6.9567 | Delta E of unknown sample (P. aeruginosa [12]; [16]): 1.0267 | log CFU/ml (estimated) (P. aeruginosa [12]; [16]): 5 | Delta E (P. aeruginosa) (P. aeruginosa [12]; paper substrate, log CFU/ml 3): 1.7900 | Delta E (P. aeruginosa) (P. aeruginosa [12]; paper substrate, log CFU/ml 4): 2.2358 | Delta E (P. aeruginosa) (P. aeruginosa [12]; paper substrate, log CFU/ml 5): 1.7151 | Delta E (P. aeruginosa) (P. aeruginosa [12]; paper substrate, log CFU/ml 6): 1.3193 | Delta E (P. aeruginosa) (P. aeruginosa [12]; paper substrate, log CFU/ml 7): 4.9569 | Delta E of unknown sample (S. aureus [13]; label substrate, S. aureus, log CFU/ml (actual) 6): 6.869 and 4.228 | Delta E (S. aureus) (S. aureus [13]; label substrate, log CFU/ml 3): 5.414 | Delta E (S. aureus) (S. aureus [13]; label substrate, log CFU/ml 4): 4.791 | Delta E (S. aureus) (S. aureus [13]; label substrate, log CFU/ml 5): 6.92 | Delta E (S. aureus) (S. aureus [13]; label substrate, log CFU/ml 6): 6.908 | Delta E (S. aureus) (S. aureus [13]; label substrate, log CFU/ml 7): 18.62 | Delta E of unknown sample (S. aureus [13]; [17]): 3.161 | log CFU/ml (estimated) (S. aureus [13]; [17]): 5 | Delta E (S. aureus) (S. aureus [13]; paper substrate, log CFU/ml 3): 1.867 | Delta E (S. aureus) (S. aureus [13]; paper substrate, log CFU/ml 4): 2.074 | Delta E (S. aureus) (S. aureus [13]; paper substrate, log CFU/ml 5): 2.447 | Delta E (S. aureus) (S. aureus [13]; paper substrate, log CFU/ml 6): 3.876 | Delta E (S. aureus) (S. aureus [13]; paper substrate, log CFU/ml 7): 11.73 | De-colorization of sticker (measles): less than that observed for the other viruses | De-colorization of sticker (vaccinia): less than that observed for the other viruses
